Measurements reported in US12516365B2, “Biocide compositions compatible with enzyme biosensors and methods of use thereof” (priority 2019, dated 2026).
Structures can show the parent of a compound that is named as a salt.

Legend:
Creatinine Sensor = assay: Screen of biocides/antibiotics for compatibility with the Creatinine Sensor (Creatinine Sensor Slope loss); assay type: biochemical; design: key: “Fail” indicates the compound inhibited Creatinine Sensor Slope; “Pass” indicates there was no significant effect on Creatinine Sensor Slope
Description: In one embodiment, a biocide candidate may be injected into, for example, one PCS-B bag after about one week of cartridge use life, and then any changes in sensor slopes over the next week or two, especially any increase in the rate of slope decrease, may be observed. During this time, aqueous solutions with high substrate concentrations may be tested to ensure that enzymes are still able to convert all substrate to products in the allotted time (e.g., about one minute).
In one embodiment, multiple cartridges assembled with, for example, PCS-B bags containing a candidate biocide may be tested for a prolonged period of time (e.g., 20-30 days) that corresponds to the useful cartridge lifespan (which may vary depending upon the cartridge type tested). In this case the cartridge starts the hydration process, which generally lasts about 50 minutes, with the biocide already in the solution bag (e.g., PCS-B). […] Over the course of 3 weeks, in addition to running aqueous controls that have established acceptance ranges, whole human blood may also be tested in order to simulate normal customer use.
A variety of candidate molecules were screened as described above to determine whether they were compatible with the Creatinine Sensor, i.e. whether there was a significant effect on Creatinine Sensor Slope.

[1] = test system: ChemSTAT creatinine sensor (creatininase, creatinase and sarcosine oxidase); assay: Creatinine and creatine sensor slopes over time with biocide in Process Control Solution (PCS); assay type: biochemical; details: for Creatinine and creatine slopes over time after addition to PCS: 20 mg/L added to PCS-B after stable slopes for more than one week
Experimental: FIGS. 2A-2B show plots of creatinine and creatine slopes over time in the presence of either MIT or polymyxin B, respectively. […] Stable slopes were first established for more than one week before 300 mg/L MIT (methyl isothiazolinone) or 20 mg/L polymyxin B was added to the Process Control Solution (PCS) B (e.g., PCS-B).
The present disclosure discovered that Polymyxin B and Polymyxin E (aka, Colistin Sulfate) were compatible with a ChemSTAT creatinine sensor that utilized two hydrolase class enzymes (e.g., creatininase and creatinase) and sarcosine oxidase to measure creatinine. When included in Process Control Solutions (PCS) at a concentration sufficient to kill microbes (e.g., bacteria, in particular gram negative rods including various strains of Pseudomonas), the slope of the sensor remained high enough over 21 days to continually allow accurate measurement of creatinine in human blood and aqueous control solutions even at the upper end of the linear range where reduced enzyme activity could result in low recovery of substrate.
MIT is the most common biocide used in the blood gas industry for microbial contamination, and is known to be compatible with oxidase class enzymes such as glucose oxidase and lactate oxidase.
Importantly, the creatinine slope performed equivalently with colistin in PCS bags (see FIG. 3, left) to cartridges with PCS bags protected only with gentamicin (see FIG. 3, right). In this plot, no bacterial contamination was observed on control or test biocide PCS bags nor was there any evidence of enzyme inhibition and therefore performance is similar.

Molecule | Pass/Fail (Creatinine Sensor Slope Loss) (Creatinine Sensor) | Inhibition/inactivation of creatininase, creatinase and sarcosine oxidase [1] | also measured
Oc1ccccc1-c1ccccc1 [2-phenyl phenol] | Fail |  | 
Oc1cccc2cccnc12 [8-hydroxyquinoline] | Fail |  | 
NCC[C@H](O)C(=O)N[C@@H]1C[C@H](N)[C@@H](O[C@H]2O[C@H](CN)[C@@H](O)[C@H](O)[C@H]2O)[C@H](O)[C@H]1O[C@H]1O[C@H](CO)[C@@H](O)[C@H](N)[C@H]1O [Amikacin sulfate] | Pass |  | 
O=c1[nH]sc2ccccc12 [BIT, benisothiazolinone] | Fail | irreversibly inhibited | 
CC1(C)S[C@@H]2[C@H](NC(=O)C(C(=O)O)c3ccccc3)C(=O)N2C1C(=O)O (some centres unmarked) [Carbenicillin disodium] | Pass |  | 
CC(C)(O/N=C(\C(=O)N[C@@H]1C(=O)N2C(C(=O)[O-])=C(C[n+]3ccccc3)CS[C@H]12)c1csc(N)n1)C(=O)O [Ceftazidime] | Pass |  | 
Cn1sc(Cl)cc1=O [Cl-MIT, chlorinatedmethyl- isonthiazolinone] | Fail | irreversibly inhibited | 
CC1(C)NC(=O)NC1=O [Dantogard Plus, dimethylhydantoin] | Fail | irreversibly inhibited | 
CNC1C(O)[C@@H](O[C@H]2C(N)C[C@H](N)C(O[C@H]3OC(C(C)N)CCC3N)C2O)OC[C@]1(C)O (some centres unmarked) [Gentamicin sulfate] | Pass |  | Creatinine slope performance over time in PCS ([1]; full use life of three weeks): maintained sufficient creatinine slope
C[C@H]1COc2c(N3CCN(C)CC3)c(F)cc3c(=O)c(C(=O)O)cn1c23 [Levofloxacin] | Pass |  | 
Cn1sc2ccccc2c1=O [MBIT, methylbenzisothiazolinone] | Fail | irreversibly inhibited | 
CCn1cc(C(=O)O)c(=O)c2cc(F)c(N3CCNCC3)cc21 [Norfloxacin] | Fail | irreversibly inhibited | 
CCCCNC(=O)OCC#CI [Omacide IPBC, iodopropynylbutylcarbamate] | Fail | irreversibly inhibited | 
CCN1CCN(C(=O)N[C@@H](C(=O)N[C@@H]2C(=O)N3C(C(=O)O)C(C)(C)S[C@H]23)c2ccccc2)C(=O)C1=O (some centres unmarked) [Piperacillin] | Pass |  | 
CN[C@@H]1[C@H](O)[C@H](NC)[C@H]2O[C@@]3(O)C(=O)C[C@@H](C)O[C@H]3O[C@@H]2[C@H]1O [Spectinomycin] | Pass |  | 
COc1cc(Cc2cnc(N)nc2N)cc(OC)c1OC [Trimethoprim] | Fail | irreversibly inhibited | 
Polymyxin B | Pass |  | Creatinine and creatine slopes over time after addition to PCS [1]: no effect; Creatinine and creatine slopes over time after addition to PCS ([1]; listed as polymyxin B): does not causes a rapid decay; Compatibility with ChemSTAT creatinine sensor ([1]; in PCS at a concentration sufficient to kill microbes, slope over 21 days): compatible
Streptomycin | Pass |  | 
